Series [1] has as its system Mycobacterium tuberculosis. As to the kind of experiment: Antitubercular activity against Mycobacterium tuberculosis H37Rv assessed as bacterial growth inhibition incubated for 7 days by microplate alamar blue assay. The format is functional. The conditions noted are these: 168 h, time 7 day.
Series [2] has as its system Mycobacterium tuberculosis. The series can be described thus: Antitubercular activity against Mycobacterium tuberculosis H37Rv assessed as bacterial growth inhibition. The format is functional.
Series [3] concerns Mycobacterium tuberculosis. As to the kind of experiment: Antitubercular activity against Mycobacterium tuberculosis Erdman assessed as bacterial growth inhibition. The format is functional.
The subject of series [4] is Mycobacteroides abscessus. The series can be described thus: Antitubercular activity against Mycobacterium abscessus CIP104536 assessed as bacterial growth inhibition incubated 3 to 5 days by resazurin based broth microdilution method. The conditions noted are these: time 3-5 day. The format is functional.
The subject of series [5] is Mycobacteroides abscessus. As to the kind of experiment: Antitubercular activity against Mycobacterium abscessus 3321 assessed as bacterial growth inhibition incubated 3 to 5 days by resazurin based broth microdilution method. The format is functional. The conditions noted are these: time 3-5 day. (Resazurin is reduced to fluorescent resorufin, in cell work by metabolically active cells.)

The subject of series [6] is Mycobacteroides abscessus. As to the kind of experiment: Antitubercular activity against Mycobacterium abscessus 2069 assessed as bacterial growth inhibition incubated 3 to 5 days by resazurin based broth microdilution method. The format is functional. The following applies: time 3-5 day.
Series [7] concerns Mycobacteroides abscessus. The series can be described thus: Antitubercular activity against Mycobacterium abscessus 3022 assessed as bacterial growth inhibition incubated 3 to 5 days by resazurin based broth microdilution method. The format is functional. The following applies: time 3-5 day.
Series [8] concerns Mycobacteroides abscessus. As to the kind of experiment: Antitubercular activity against Mycobacterium abscessus 1298 assessed as bacterial growth inhibition incubated 3 to 5 days by resazurin based broth microdilution method. The format is functional. The following applies: time 3-5 day.
The subject of series [9] is Mycobacteroides abscessus. As to the kind of experiment: Antitubercular activity against Mycobacterium abscessus 2587 assessed as bacterial growth inhibition incubated 3 to 5 days by resazurin based broth microdilution method. The format is functional. The following applies: time 3-5 day.
The subject of series [10] is Mycobacteroides abscessus. As to the kind of experiment: Antitubercular activity against Mycobacterium abscessus CF assessed as bacterial growth inhibition incubated 3 to 5 days by resazurin based broth microdilution method. The format is functional. The conditions noted are these: time 3-5 day.
For series [11], the system named is Mycobacteroides abscessus. As to the kind of experiment: Antitubercular activity against Mycobacterium abscessus 2524 assessed as bacterial growth inhibition incubated 3 to 5 days by resazurin based broth microdilution method. The format is functional. The following applies: time 3-5 day.
Series [12] deals with Mycobacteroides abscessus. The series can be described thus: Antitubercular activity against Mycobacterium abscessus 2648 assessed as bacterial growth inhibition incubated 3 to 5 days by resazurin based broth microdilution method. The format is functional. The following applies: time 3-5 day.
Series [13] concerns Mycobacteroides abscessus. As to the kind of experiment: Antitubercular activity against Mycobacterium abscessus 5175 assessed as bacterial growth inhibition incubated 3 to 5 days by resazurin based broth microdilution method. The format is functional. The conditions noted are these: time 3-5 day.
In series [14] the test system is Mycobacterium tuberculosis. As to the kind of experiment: Antitubercular activity against Mycobacterium tuberculosis ATCC 27294 (H37Rv) assessed as bacterial growth inhibition by agar dilution method. The format is functional.
Series [15] concerns Mycobacterium tuberculosis. As to the kind of experiment: Antitubercular activity against Mycobacterium tuberculosis assessed as bacterial growth inhibition in 7H9 medium incubated for 5 days by microplate reader analysis. The format is functional. The conditions noted are these: 120 h, time 5 day.
For series [16], the system named is Mycobacterium tuberculosis. As to the kind of experiment: In vivo antimycobacterial activity against Mycobacterium tuberculosis H37Rv infected in BALB/c mouse assessed as reduction in bacterial load in lungs at 40 to 100 mg/kg, po and measured after 4 weeks. The format is functional. The following applies: dose 40-100 mg/kg.
The subject of series [17] is Mycobacterium tuberculosis. The series can be described thus: In vivo antimycobacterial activity against Mycobacterium tuberculosis H37Rv infected in BALB/c mouse assessed as reduction in bacterial load in spleen at 40 to 100 mg/kg, po and measured after 4 weeks. The format is functional. The following applies: dose 40-100 mg/kg.
Series [18] relates to Mycobacterium tuberculosis. As to the kind of experiment: Antitubercular activity against Mycobacterium tuberculosis H37Rv assessed as bacterial growth inhibition by microdilution method. The format is functional. (Broth dilution looks for growth in wells or tubes with falling amounts of substance.)
Series [19] deals with Mycobacterium tuberculosis. As to the kind of experiment: Antimycobacterial activity against Mycobacterium tuberculosis H37Rv assessed as bacterial growth inhibition incubated for 7 days by microplate alamar blue assay. The conditions noted are these: 168 h, time 7 day. The format is functional.
In series [20] the test system is Mycobacterium tuberculosis. The series can be described thus: Antimycobacterial activity against Mycobacterium tuberculosis Erdman assessed as bacterial growth inhibition incubated for 7 days by microplate alamar blue assay. The format is functional. The following applies: 168 h, time 7 day.
The next series deals with Mycobacterium avium. The series can be described thus: Antimycobacterial activity against Mycobacterium avium assessed as bacterial growth inhibition incubated for 7 days by microplate alamar blue assay. The following applies: 168 h, time 7 day. The format is functional.
For series [21], the system named is Mycobacterium tuberculosis. The series can be described thus: In vivo antimycobacterial activity against Mycobacterium tuberculosis Erdman infected in Balb/c mouse assessed as reduction in log10 CFU in lungs at 15 mg/kg,po for 4 weeks […]. The format is functional.
Series [22] relates to Mycobacterium tuberculosis. As to the kind of experiment: Antitubercular activity against Mycobacterium tuberculosis Erdman assessed as bacterial growth inhibition incubated for 1 week by microplate alamar blue assay. The format is functional, organism-based. The following applies: 168 h.
For series [23], the system named is Mycobacterium tuberculosis. The series can be described thus: Antimycobacterial activity against Mycobacterium tuberculosis CIP103471 infected in human U-937 cells assessed as bacterial growth inhibition incubated for 7 days. The format is functional. The conditions noted are these: CIP103471, 168 h, time 7 day.
In series [24] the test system is Mycobacterium tuberculosis. As to the kind of experiment: Antitubercular activity against Mycobacterium tuberculosis H37Rv assessed as bacterial growth inhibition incubated for 7 days by Alamar blue based fluorescence assay. The following applies: 168 h, time 7 day. The format is functional.
Series [25] concerns Mycobacterium tuberculosis. As to the kind of experiment: Antitubercular activity against Mycobacterium tuberculosis H37Rv ATCC 27294 infected in african green monkey Vero cells assessed as bacterial growth inhibition incubated for 6 days by microplate alamar blue assay. The format is functional. The following applies: H37Rv ATCC 27294, 144 h, time 6 day.
For series [26], the system named is Mycobacterium tuberculosis. As to the kind of experiment: Antitubercular activity against Mycobacterium tuberculosis Erdman ATCC 35801 infected in RAW264.7 cells assessed as inhibition of intracellular bacterial growth incubated for 6 days by microplate alamar blue assay. The format is functional. Also noted: scale not given: the % may be the effect or the level left. The conditions noted are these: time 6 day.

The nature of series [27]: Selectivity index, ratio of IC50 for cytotoxicity against African green monkey Vero cells to MIC for antitubercular activity against Mycobacterium tuberculosis H37Rv ATCC 27294. The format is toxicity, cell-based. The following applies: read-out: Selectivity Index.
Series [28] relates to Mycobacterium tuberculosis. As to the kind of experiment: Antitubercular activity against Mycobacterium tuberculosis CDC1551 assessed as bacterial growth inhibition for 6 days by spectroscopic analysis. The format is functional, organism-based. The conditions noted are these: CDC1551, 144 h.
Series [29] concerns Mycobacterium tuberculosis. The series can be described thus: Antitubercular activity against Mycobacterium tuberculosis CDC1551 infected in mouse bone marrow derived macrophage assessed as bacterial growth inhibition for 2 days by spectroscopic analysis. The format is functional. The conditions noted are these: CDC1551, 48 h, time 2 day.
In series [30] the test system is Mycobacterium tuberculosis. As to the kind of experiment: Antitubercular activity against Mycobacterium tuberculosis H37Rv assessed as bacterial growth inhibition by REMA analysis. The format is functional.
Series [31] relates to Mycobacterium tuberculosis. The series can be described thus: In vivo antimycobacterial activity against Mycobacterium tuberculosis H37Rv infected in mouse assessed as reduction in log10 CFU at 1 to 2 times MIC and measured after 10 days. The format is functional. The conditions noted are these: time 10 day.
The subject of series [32] is Mycobacterium tuberculosis. The series can be described thus: Antimycobacterial activity against Mycobacterium tuberculosis H37Rv infected in THP-1 cells assessed as reduction in log10 CFU at MIC and measured after 2 to 7 days. The format is functional. The conditions noted are these: time 2-7 day.

Experimental findings from ChEMBL document CHEMBL5260858, “Targeting mycobacterial membranes and membrane proteins: Progress and limitations” (Bioorg Med Chem, 2023) are described below.

Values after ≈ are worked out from the molar mass of the structure shown.

For `O=c1cc(-c2ccccc2O)oc2ccc(O)c(CN3CCC3)c12`, the MIC in series [1] was 0.45 µg/mL (≈ 1.39 µM).

For `Cc1c(OCC(F)(F)F)ccnc1CSc1nc2ccccc2[nH]1` [LANSOPRAZOLE SULFIDE], the MIC90 turned out to be 1.13 µM (≈ 0.399 µg/mL) in [2] and 1.21 µM (≈ 0.428 µg/mL) in series [3].

As to `Cc1ccccc1CN1CCC(O)(c2ccc(Cl)c(C(F)(F)F)c2)CC1`, the MIC in series [4], in series [5], in [6], in series [7], in series [8] and in series [9] was 0.125 µg/mL (≈ 0.326 µM) in each case. Besides, the MIC in series [10], in [11], in series [12] and in [13] was 0.125 µg/mL (≈ 0.326 µM) in each case.

On to `CCOC(=O)NC(=O)c1ccsc1NC(=O)c1nc2ccccc2s1`, for which the MIC in [14] and in series [15] was 0.19 µg/mL (≈ 0.506 µM) in each case. Moreover, the results for the Activity in [16] and in [17] were 2 log10CFU and 3 log10CFU, respectively.

Consider `COC(=O)c1c(NC(=O)c2c(F)c(F)c(F)c(F)c2F)sc(C(N)=O)c1C`, for which, in [18], the MIC was 0.5 µM.

Regarding `O=[N+]([O-])c1cc(C(F)(F)F)cc2c(=S)nc(N3CCC4(CC3)OCCO4)sc12`, the MIC in [19] was 0.02 µg/mL (≈ 0.0461 µM); in [20], 32 µg/mL (≈ 73.8 µM); with Mycobacterium avium it was less than 0.05 µg/mL. Besides, in [21], the Activity was found to be 3.4 log10CFU.

As to `CCCCNc1nc(CC)nc2sc(C)cc12`, the IC50 in series [22] was found to be 2.7 µM.

Regarding `Cc1c(CN2CCN(C)CC2)cc(-c2ccc(Cl)cc2)n1-c1ccc(Cl)cc1`, the MIC in series [23] stood at 1 µg/mL (≈ 2.41 µM).

Take `COc1ncccc1Nc1cc2nc3ccccc3n(-c3ccc(OC(F)(F)F)cc3)c-2c/c1=N\C1CCC(OC)CC1` (centres undefined): the MIC in series [24] was found to be 0.016 µg/mL (≈ 0.0271 µM).

On to `CC(C)=CCC/C(C)=C/CNCCNC1C2CC3CC(C2)CC1C3` (centres undefined) [SQ109], for which the MIC in series [25] was 0.7 µM (≈ 0.231 µg/mL). Also, the Activity in [26] was 99%. The selectivity ratio in series [27] was found to be 16.7.

Turning to `O=C(NCCc1ccc(Cl)cc1)C1(c2cccs2)CCOCC1`, the half-maximal effective concentration (EC50) in [28] was 6.4 µM. Besides, the MIC99 in series [29] worked out at 19.3 µM (≈ 6.75 µg/mL).

With `COc1ncnc(Cn2cnc3c(C(=O)NCCF)cccc32)c1C`, in [30], the MIC is 1.56 µM (≈ 0.536 µg/mL). For the same compound, the Activity is on record as more than 3 log10CFU in series [31] and 1 log10CFU in series [32].

For the compound `O=c1cc(-c2ccc(O)cc2)oc2ccc(O)c(CN3CCC3)c12`, in series [1], the MIC was 0.45 µg/mL (≈ 1.39 µM).

Broadly, the MIC is the least concentration at which growth counts as inhibited. A word on the MIC90: it is an inhibitory concentration at the 90% level, which refers to growth in some studies and to a panel of isolates in others. As usually defined, the IC50 is the concentration needed to halve the response being measured. One may read the EC50 as the concentration giving half of the maximal effect.
